Reference: patent publication US20210087238A1, “CELL PENETRATING PEPTIDES AND RELATED COMPOSITIONS AND METHODS” (Phylogica Limited, priority 2017, published 2021)
Where two headings read alike, the source gives them in different places. Where a SMILES comes first, the peptide text is derived from it. Where no end group is shown, it is not given here. [ ]: non-standard residue; d: D form.

Tests used:
[1] = system: CHO-K1 cells; assay: PAP cell viability assay: SpyC_PAP conjugated to CPP_SpyT, resazurin reduction; type: cell-based; details: for cell death caused by SpyC-PAP conjugate: compared to TAT or Penetratin-delivered SpyC_PAP
Description: (§1) With the exception of SpyC PAS proteins, conjugations were set up at a SpyCatcher:SpyTag ratio of 1:1.25, with a 40 μM final concentration for the SpyCatcher moiety. SpyC proteins and SpyTag peptides were incubated for 2 h at 22° C. with gentle mixing, and then left at 4° C. overnight. Conjugation efficiencies were analyzed on 4-16% SDS-PAGE gels stained with Gel Code Blue Reagent (Thermo Fisher Scientific). SpyC_PAS proteins were conjugated with SpyTag peptides at ratio 1:1.1, mixed and incubated at room temperature for 30 mins before being stored overnight at 4° C.
(§2) All assays followed manufacturer's instructions.
SpyC-PAP/CPP-SpyT complex IC50s were ranked according to potency to determine impact of changes to primary CPP sequence. Sequence variations positively impacting on potency are retained for further optimization, whereas sequence variations deleterious to potency are excluded, thus establishing sequence activity relationships for the CPP peptide. SpyC_BLA/CPP-SpyT complex median cell fluorescence at 4 μM concentration was ranked according to intensity to determine impact of changes to primary CPP sequence. Sequence variations positively impacting on intensity were retained for further optimization, whereas sequence variations deleterious to intensity were excluded, thus establishing sequence activity relationships for the CPP peptide.
For the first readout of functional activity we chose the proapoptotic peptide PAP (SEQ ID NO:61; Ellerby et al 1999, Nat Med, 5, 1032-1038) as a functional cargo and expressed it recombinantly, fused to SpyCatcher (SEQ ID NO:83) (abbreviated as “SpyC_PAP” or “SpyC-PAP”; SEQ ID NO:62) to enable subsequent conjugation with synthetic CPP-SpyTag fusion proteins. Mammalian cells were incubated with SpyC_PAP-CPP protein conjugates, which induce apoptosis if successfully delivered into cells. […] As a representative member of the largest cluster of sequences from the screen, FPP1 was selected for additional optimization studies.

[2] = system: CHO-K1 cells; details: up to 50 μM; for cytotoxicity of peptides alone, LDH release (membrane integrity): 2 h and 24 h incubation; for cytotoxicity of peptides alone, cell viability: 24 h and 48 h incubation
Description: Cell viability effect on CHO-K1 cells of Phylomer™ CPPs and variants compared to the canonical CPPs TAT and Penetratin following 24 h (A) and 48 h (B) incubation with peptides. Cell viability was assessed by resazurin reduction potential. Membrane integrity of CHO-K1 cells were assessed by LDH release following 2 h (C) and 24 h (D) incubation with peptides. […] Results are representative of 3 independent experiments. Error bars represent standard deviation from the mean of triplicate samples.
(§3) Cells in were seeded at 2000-6000 cells/well, depending on cell line, in 96-well plates (PAP assays: CHO-K1, 3000 cells/well; peptide cytotoxicity assays: CHO-K1, 5000 cells/well; Bouganin assay: CHO-K1 and CHO-K1 EGFR, 2500 cells/well; ^DPMIα assays: T47D, 5000 cells/well; Omomyc assays: all cell lines, 5000 cells/well). In brief, adherent cells were allowed to attach for 24 h prior to addition of treatments whereas suspension cell lines were treated immediately following seeding. Following 2-48 h incubations with treatments, cell viability was measure by a variety of methods. Membrane integrity was assessed by the release of LDH into the media via the CytoTox-ONE reagent (Promega). Metabolic activity was measured either by resazurin reduction potential using PrestoBlue (LifeTech) or ATP activity using CellTitre-Glo (Promega). All assays followed manufacturer's instructions. IC50 values were calculated using Prism (version 7.0a, GraphPad).
When delivering therapeutics into a cell, it is critical that the delivery molecule itself is not cytotoxic. To assess innate cytotoxicity we tested the effects of FPPs alone on cell viability at 24 h (FIG. 6A) and 48 h (FIG. 6B) after addition of peptides. The effects of FPPs on membrane stability of cells was also assessed in a LDH enzymatic assay, measuring release of LDH from cells into surrounding media at 2 h (FIG. 6C) and 24 h (FIG. 6D) after treatment with peptides.

[3] = system: T47D cells; assay: Cell viability assay of FPP1.1_SpyT variants conjugated to SpyC_PAP, resazurin reduction; type: cell-based; details: 48 h incubation, FIG. 5
Description: Cell viability assay on T47D cells of FPP1.1_SpyT peptide compared to retro-inverso (RI) and dimerised variants conjugated to the SpyCatcher_PAP (SpyC_PAP) mitochondriotoxic cargo. T47D cells were seeded at 6×10^3 cells per well and treated the following day with FPP-Toxic cargo conjugates. Following 48 h incubation cell viability was assessed by resazurin reduction potential.
as §1, §2

[4] = system: T47D cells; details: for delivery of DPMIα, comparison of 10 μM peptide treatments: FIG. 8B, one-way ANOVA; for effect on T47D cell viability of CPP-delivered DPMIα: 48 h incubation, FIG. 8A; for IC50: 48 h
Description: Cell viability was assessed by resazurin reduction potential after 48 h incubation with peptides. […] Results are representative of 3 independent experiments.
as §3
^DPMIα is a small peptide (SEQ ID NO:105), which when conjugated to cationic CPPs can internalize into cells, bind to MDM2 (acting as a dominant negative peptide) and lift p53 suppression causing indiscriminate cytotoxicity (Liu, supra).

[5] = PAP assay, variant_SpyT/SpyC_PAP

Compound: PLKPKKPKTQEKKKKQPPKPKKPKTQEKKKKQPPKPK (Amino acid sequence of a Sindbis virus capsid-derived CPP (SAR12)) [FPP1-SAR12]
- loss/reduction of activity (potency) relative to parental FPP1 [1, 5]: approximately 2.2 fold

Compound: CC[C@H](C)[C@H](NC(=O)[C@H](Cc1c[nH]cn1)NC(=O)[C@H](C)NC(=O)[C@H](CO)NC(=O)[C@H](C)NC(=O)CNC(=O)[C@H](CCCNC(=N)N)NC(=O)[C@H](CCCNC(=N)N)NC(=O)[C@H](CCCNC(=N)N)NC(=O)[C@H](CCC(N)=O)NC(=O)[C@H](CCCNC(=N)N)NC(=O)[C@H](CCCNC(=N)N)NC(=O)[C@H](CCCCN)NC(=O)[C@H](CCCCN)NC(=O)[C@H](CCCNC(=N)N)NC(=O)CN)C(=O)N[C@H](C(=O)N[C@@H](CCSC)C(=O)N[C@H](C(=O)N[C@@H](CC(=O)O)C(=O)N[C@@H](C)C(=O)N[C@@H](Cc1ccc(O)cc1)C(=O)N[C@@H](CCCCN)C(=O)N1CCC[C@H]1C(=O)N[C@H](C(=O)N[C@@H](CCCCN)C(=O)NCC(=O)O)[C@@H](C)O)C(C)C)C(C)C [TAT-SpyTag fusion]
- cytotoxicity of peptides alone, LDH release (membrane integrity) [2]: no cytotoxic activity
- cytotoxicity of peptides alone, cell viability [2]: no cytotoxic activity

Compound: KKKKQPPKPKKPKTQEKKKKQPPKPKRGASAHIVMVDAYKPTKGASKKKKQPPKPKKPKTQEKKKKQPPKPKR [dimerised FPP1.1]
- IC50 [3]: 6.3 µM

Compound: PLKPKKPKTQEKKKKQPPKPKKPKTQEKKKKQPPKPKR (Amino acid sequence of a Sindbis virus capsid-derived CPP (SVC27)) [FPP1]
- potency of FPP-delivered PAP conjugate (decrease in CHO-K1 cell viability), order of potency ([1]; CPP_SpyT conjugated to SpyC_PAP, resazurin, FIG. 4A): greatest potency
- cell death caused by SpyC-PAP conjugate ([1]; FIG. 4A): significant cell death
- delivery of DPMIα, comparison of 10 μM peptide treatments [4]: significantly improved delivery compared to TAT
- effect on T47D cell viability of CPP-delivered DPMIα [4]: dose dependent decrease in T47D cell viability

Compound: PLRPRRPRTQERRRRQPPRPRRPRTQERRRRQPPRPRR (Amino acid sequence of a Sindbis virus capsid-derived CPP (SAR 17)) [FPP1-SAR17]
- loss/reduction of activity (potency) relative to parental FPP1 [1, 5]: 1.5 fold

Compound: C[C@@H](O)[C@H](NC(=O)[C@H](CCCCN)NC(=O)[C@@H]1CCCN1C(=O)[C@H](CCCCN)NC(=O)[C@H](CCCCN)NC(=O)[C@@H]1CCCN1C(=O)[C@H](CCCCN)NC(=O)[C@@H]1CCCN1C(=O)[C@@H]1CCCN1C(=O)[C@H](CCC(N)=O)NC(=O)[C@H](CCCCN)NC(=O)[C@H](CCCCN)NC(=O)[C@H](CCCCN)NC(=O)[C@@H](N)CCCCN)C(=O)N[C@@H](CCC(N)=O)C(=O)N[C@@H](CCC(=O)O)C(=O)N[C@@H](CCCCN)C(=O)N[C@@H](CCCCN)C(=O)N[C@@H](CCCCN)C(=O)N[C@@H](CCCCN)C(=O)N[C@@H](CCC(N)=O)C(=O)N1CCC[C@H]1C(=O)N1CCC[C@H]1C(=O)N[C@@H](CCCCN)C(=O)N1CCC[C@H]1C(=O)N[C@@H](CCCCN)C(=O)N[C@@H](CCCNC(=N)N)C(=O)O [FPP1.1] (H-KKKKQPPKPKKPKTQEKKKKQPPKPKR-OH)
- IC50 [3]: 8.7 µM
- cytotoxicity of peptides alone, cell viability [2]: lack of cytotoxicity

Compound: KTQEKKKKQTTKTKKTKTQEKKKKQTTKTKR (Amino acid sequence of a Sindbis virus capsid-derived CPP (1746P_T)) [FPP1-P_T]
- effect of truncation or mutation on CPP potency ([1]; PAP assay, relative to parental FPP1): unaffected

Compound: PLKPKKPKTQEKKKKQPPKPKKPKTQEKKKKQPPKPKRGAS[dT][dN][dW][dY][dA][dN][dL][dE][dK][dL][dL][dR] [FPP1_^DPMIα]
- IC50 [4]: 9.1 µM
- effect on T47D cell viability of CPP-delivered DPMIα [4]: significantly more cytotoxic than ^DPMIα alone

Compound: SpyC only control: SpyCatcher control without CPP [reference compound]
- cell death caused by SpyC-PAP conjugate ([1]; FIG. 4A): no effect

Compound: KKQPPKPKKPKTQEKKKKQPPKPKR (Amino acid sequence of a Sindbis virus capsid-derived CPP (SAR5)) [FPP1-SAR5]
- loss/reduction of activity (potency) relative to parental FPP1 [1, 5]: 3 fold

Compound: CC(C)C[C@@H](NC(=O)[C@@H](CC(C)C)NC(=O)[C@@H](CCCCN)NC(=O)[C@@H](CCC(=O)O)NC(=O)[C@@H](CC(C)C)NC(=O)[C@@H](CC(N)=O)NC(=O)[C@@H](C)NC(=O)[C@@H](Cc1ccc(O)cc1)NC(=O)[C@@H](Cc1c[nH]c2ccccc12)NC(=O)[C@@H](CC(N)=O)NC(=O)[C@H](NC(=O)[C@H](CO)NC(=O)[C@H](C)NC(=O)CNC(=O)[C@H](CCCNC(=N)N)NC(=O)[C@H](CCCNC(=N)N)NC(=O)[C@H](CCCNC(=N)N)NC(=O)[C@H](CCC(N)=O)NC(=O)[C@H](CCCNC(=N)N)NC(=O)[C@H](CCCNC(=N)N)NC(=O)[C@H](CCCCN)NC(=O)[C@H](CCCCN)NC(=O)[C@H](CCCNC(=N)N)NC(=O)CN)[C@H](C)O)C(=O)N[C@H](CCCNC(=N)N)C(=O)O [TAT_^DPMIα, GRKKRRQRRRGAStnwyanlekllr, reference compound] (H-GRKKRRQRRRGAS[dT][dN][dW][dY][dA][dN][dL][dE][dK][dL][dL][dR]-OH; N-terminus and C-terminus assumed)
- IC50 [4]: 36.6 µM

Compound: GRKKRRQRRR (Amino acid sequence of TAT CPP) [reference compound]
- cytotoxicity of peptides alone, LDH release (membrane integrity) [2]: non-toxic
- cytotoxicity of peptides alone, cell viability [2]: non-toxic
- delivery of DPMIα, comparison of 10 μM peptide treatments [4]: significantly improved compared to DPMIα peptide alone

Compound: TLKTKKTKTQEKKKKQTTKTKKTKTQEKKKKQTTKTKR (Amino acid sequence of a Sindbis virus capsid-derived CPP (SAR16 P_T)) [FPP1-SAR16]
- improvement of activity relative to full length FPP1 [1, 5]: 1.7 fold

Compound: CC[C@H](C)[C@H](NC(=O)[C@H](CCCCN)NC(=O)[C@@H](NC(=O)[C@H](CCC(N)=O)NC(=O)[C@@H](N)CCCNC(=N)N)[C@@H](C)CC)C(=O)N[C@@H](Cc1c[nH]c2ccccc12)C(=O)N[C@@H](Cc1ccccc1)C(=O)N[C@@H](CCC(N)=O)C(=O)N[C@@H](CC(N)=O)C(=O)N[C@@H](CCCNC(=N)N)C(=O)N[C@@H](CCCNC(=N)N)C(=O)N[C@@H](CCSC)C(=O)N[C@@H](CCCCN)C(=O)N[C@@H](Cc1c[nH]c2ccccc12)C(=O)N[C@@H](CCCCN)C(=O)N[C@@H](CCCCN)C(=O)NCC(=O)N[C@@H](C)C(=O)N[C@@H](CO)C(=O)N[C@@H](C)C(=O)N[C@@H](Cc1c[nH]cn1)C(=O)N[C@H](C(=O)N[C@H](C(=O)N[C@@H](CCSC)C(=O)N[C@H](C(=O)N[C@@H](CC(=O)O)C(=O)N[C@@H](C)C(=O)N[C@@H](Cc1ccc(O)cc1)C(=O)N[C@@H](CCCCN)C(=O)N1CCC[C@H]1C(=O)N[C@H](C(=O)N[C@@H](CCCCN)C(=O)NCC(=O)O)[C@@H](C)O)C(C)C)C(C)C)[C@@H](C)CC [Penetratin CPP-SpyTag fusion]
- cytotoxicity of peptides alone, cell viability [2]: some inconsistent cytotoxicity at the highest concentrations
